# In US20150274661A1, “INDOL-AMIDE COMPOUNDS AS BETA-AMYLOID INHBITORS” (Hoffmann-La Roche Inc., priority 2012, published 2015):
# Tested on: Aβ42 secretion
# Assay: Cellular γ-secretase assay (inhibition of Aβ42 secretion)
# Format: cell-based
# Conditions: Homo sapiens, 22 h, human neuroglioma H4 cells overexpressing human APP, 22 hours incubation
# Method: Cellular γ-Secretase Assay
# The compounds were investigated in accordance with the test given hereinafter.
# Human neuroglioma H4 cells overexpressing human APP were plated at 30,000 cells/well/200 μL in 96-well plates in IMDM media containing 10% FCS, […] Hygromycin B and incubated for 2 hours at 37° C., 5% CO2 prior to adding test compounds.
# Compounds for testing were dissolved in 100% Me2SO yielding in a 10 mM stock solution. Typically 12 μL of these solutions were further diluted in 1000 μL of IMDM media (w/o FCS). Subsequent 1:1 dilutions gave a ten point dose response curve. 100 μL of each dilution was added to the cells in 96-well plates. Appropriate controls using vehicle only and reference compound were applied to this assay. The final concentration of Me2SO was 0.4%.
# After incubation for 22 hours at 37° C., 5% CO2, 50 μL supernatant was transferred into round-bottom 96-well polypropylene plates for detection of Aβ42. 50 μL assay buffer (50 mM Tris/Cl, pH 7.4, 60 mM NaCl, 0.5% BSA, 1% TWEEN 20) was added to the wells followed by the addition of 100 μL of detection antibody (ruthenylated BAP15 0.0625 μg/mL in assay buffer). 50 μL of a premix of capture antibody (biotinylated 6E10 antibody, 1 μg/mL) and Streptavidin-coated magnetic beads (Dynal M-280, 0.125 mg/mL) were preincubated for 1 hour at room temperature before adding the assay plates. Assay plates were incubated on a shaker for 3 hours at room temperature and finally read in the Bioveris M8 Analyser according to the manufacturer's instructions (Bioveris).
# IC50 values for inhibition of Aβ42 secretion were calculated by nonlinear regression fit analysis using XLfit 4.0 software (IDBS).
row,EC50 [nM],Structure (SMILES)
1,1860,"O=C(Nc1cncc(F)c1)c1cc2cc(C3CCN(Cc4ccccc4)C3)ccc2[nH]1 (stereo not shown) [Example 74, 5-(1-Benzyl-pyrrolidin-3-yl)-1H-indole-2-carboxylic acid (5-fluoro-pyridin-3-yl)-amide]"
2,1310,"O=C(Nc1cncc(F)c1)c1cc2cc(C3CCNC3)ccc2[nH]1 (stereo not shown) [Example 75, N-(5-Fluoropyridin-3-yl)-5-(pyrrolidin-3-yl)-1H-indole-2-carboxamide]"
3,796,"CC(C)N1CCC(c2ccc3[nH]c(C(=O)Nc4cncc(F)c4)cc3c2)C1 (stereo not shown) [Example 76, N-(5-Fluoropyridin-3-yl)-5-(1-isopropylpyrrolidin-3-yl)-1H-indole-2-carboxamide]"
4,3760,"CC(C)OC(=O)N1CCC(c2ccc3[nH]c(C(=O)Nc4cncc(F)c4)cc3c2)C1 (stereo not shown) [Example 77, isopropyl 3-(2-(5-fluoropyridin-3-ylcarbamoyl)-1H-indol-5-yl)pyrrolidine-1-carboxylate]"
5,927,"C=CCCN1CCC(c2ccc3[nH]c(C(=O)Nc4cncc(F)c4)cc3c2)C1 (stereo not shown) [Example 78, 5-(1-(But-3-enyl)pyrrolidin-3-yl)-N-(5-fluoropyridin-3-yl)-1H-indole-2-carboxamide]"
6,981,"O=C(Nc1cncc(F)c1)c1cc2cc(C3CCN(CC4CC4)C3)ccc2[nH]1 (stereo not shown) [Example 79, 5-(1-(Cyclopropylmethyl)pyrrolidin-3-yl)-N-(5-fluoropyridin-3-yl)-1H-indole-2-carboxamide]"
7,942,"N#CCN1CCC(c2ccc3[nH]c(C(=O)Nc4cncc(F)c4)cc3c2)C1 (stereo not shown) [Example 80, 5-(1-Cyanomethyl-pyrrolidin-3-yl)-1H-indole-2-carboxylic acid (5-fluoro-pyridin-3-yl)-amide]"
8,4250,"N#CCN1CCC(c2ccc3c(c2)cc(C(=O)Nc2cncc(F)c2)n3CC#N)C1 (stereo not shown) [Example 81, 1-Cyanomethyl-5-(1-cyanomethyl-pyrrolidin-3-yl)-1H-indole-2-carboxylic acid (5-fluoro-pyridin-3-yl)-amide]"
9,1930,"COCC(=O)N1CCC(c2ccc3[nH]c(C(=O)Nc4cncc(F)c4)cc3c2)C1 (stereo not shown) [Example 82, N-(5-Fluoropyridin-3-yl)-5-(1-(2-methoxyacetyl)pyrrolidin-3-yl)-1H-indole-2-carboxamide]"
10,3340,"N#Cc1ccc(N2CCC(c3ccc4[nH]c(C(=O)Nc5cncc(F)c5)cc4c3)C2)nn1 (stereo not shown) [Example 83, 5-(1-(6-Cyanopyridazin-3-yl)pyrrolidin-3-yl)-N-(5-fluoropyridin-3-yl)-1H-indole-2-carboxamide]"
11,4860,"O=C(Nc1cncc(F)c1)c1cc2cc(C3CCN(S(=O)(=O)c4ccc(F)cc4)C3)ccc2[nH]1 (stereo not shown) [Example 84, 5-(1-(4-Fluorophenylsulfonyl)pyrrolidin-3-yl)-N-(5-fluoropyridin-3-yl)-1H-indole-2-carboxamide]"
12,445,"O=C(Nc1ccc(F)c(F)c1)c1cc2cc(C3=COCCC3)ccc2[nH]1 [Example 85, 5-(5,6-Dihydro-4H-pyran-3-yl)-1H-indole-2-carboxylic acid (3,4-difluoro-phenyl)-amide]"
13,990,"O=C(Nc1ccc(F)c(F)c1)c1cc2cc(C3CCCOC3)ccc2[nH]1 (stereo not shown) [Example 86, 5-(Tetrahydro-pyran-3-yl)-1H-indole-2-carboxylic acid (3,4-difluoro-phenyl)-amide]"
14,321,"CC(c1ccc2[nH]c(C(=O)Nc3cc(F)cc(F)c3)cc2c1)N1CCCC1=O (stereo not shown) [Example 88, 5-[1-(2-Oxo-pyrrolidin-1-yl)-ethyl]-1H-indole-2-carboxylic acid (3,5-difluoro-phenyl)-amide]"
15,4400,"CC(c1ccc2[nH]c(C(=O)Nc3cc(F)cc(F)c3)cc2c1)N1CCCCC1=O (stereo not shown) [Example 89, 5-[1-(2-Oxo-piperidin-1-yl)-ethyl]-1H-indole-2-carboxylic acid (3,5-difluoro-phenyl)-amide]"
16,877,"CC(c1ccc2[nH]c(C(=O)Nc3cc(F)cc(F)c3)cc2c1)N1CCCC1 (stereo not shown) [Example 90, 5-(1-Pyrrolidin-1-yl-ethyl)-1H-indole-2-carboxylic acid (3,5-difluoro-phenyl)-amide]"
17,1490,"C=C(c1ccc2[nH]c(C(=O)Nc3cc(F)cc(F)c3)cc2c1)C1CCN(Cc2ccccc2)C1 (stereo not shown) [Example 91, 5-(1-(1-Benzylpyrrolidin-3-yl)vinyl)-N-(3,5-difluorophenyl)-1H-indole-2-carboxamide]"
18,1180,"CC(c1ccc2[nH]c(C(=O)Nc3cc(F)cc(F)c3)cc2c1)C1CCNC1 (stereo not shown) [Example 92, N-(3,5-Difluorophenyl)-5-(1-(pyrrolidin-3-yl)ethyl)-1H-indole-2-carboxamide]"
19,1190,"CC(c1ccc2[nH]c(C(=O)Nc3cc(F)cc(F)c3)cc2c1)C1CCN(C(C)C)C1 (stereo not shown) [Example 93, N-(3,5-Difluorophenyl)-5-(1-(1-isopropylpyrrolidin-3-yl)ethyl)-1H-indole-2-carboxamide]"
20,1340,"CC(c1ccc2[nH]c(C(=O)Nc3cc(F)cc(F)c3)cc2c1)C1CCN(CC#N)C1 (stereo not shown) [Example 94, 5-(1-(1-(Cyanomethyl)pyrrolidin-3-yl)ethyl)-N-(3,5-difluorophenyl)-1H-indole-2-carboxamide]"
21,2480,"CC(=O)N1CCC(C(C)c2ccc3[nH]c(C(=O)Nc4cc(F)cc(F)c4)cc3c2)C1 (stereo not shown) [Example 95, 5-(1-(1-Acetylpyrrolidin-3-yl)ethyl)-N-(3,5-difluorophenyl)-1H-indole-2-carboxamide]"
22,7720,"CC(c1ccc2[nH]c(C(=O)Nc3cc(F)cc(F)c3)cc2c1)C1CCN(CC(F)(F)F)C1 (stereo not shown) [Example 96, N-(3,5-Difluorophenyl)-5-(1-(1-(2,2,2-trifluoroethyl)pyrrolidin-3-yl)ethyl)-1H-indole-2-carboxamide]"
23,1260,"C=C(CCN1CCCCC1)c1ccc2[nH]c(C(=O)Nc3cc(F)cc(F)c3)cc2c1 [Example 97, N-(3,5-Difluorophenyl)-5-(4-(piperidin-1-yl)but-1-en-2-yl)-1H-indole-2-carboxamide]"
24,1040,"CC(CCN1CCCCC1)c1ccc2[nH]c(C(=O)Nc3cc(F)cc(F)c3)cc2c1 (stereo not shown) [Example 98, N-(3,5-Difluorophenyl)-5-(4-(piperidin-1-yl)butan-2-yl)-1H-indole-2-carboxamide]"
25,1240,"CC(CN1CCCC1)c1ccc2[nH]c(C(=O)Nc3cccc(F)c3)cc2c1 (stereo not shown) [Example 99, N-(3-Fluorophenyl)-5-(1-(pyrrolidin-1-yl)propan-2-yl)-1H-indole-2-carboxamide]"
26,2610,"O=C(Nc1ccc(F)c(F)c1)c1cc2cc(C(O)CN3CCCCC3)ccc2[nH]1 (stereo not shown) [Example 100, 5-(1-Hydroxy-2-piperidin-1-yl-ethyl)-1H-indole-2-carboxylic acid (3,4-difluoro-phenyl)-amide]"
27,3830,"O=C(Nc1cc(F)cc(F)c1)c1cc2cc(/C=C/N3C(=O)[C@@H]4CC[C@H]3C4)ccc2[nH]1 [Example 101, 5-[(E)-2-((1S,4R)-3-Oxo-2-aza-bicyclo[2.2.1]hept-2-yl)-vinyl]-1H-indole-2-carboxylic acid (3,5-difluoro-phenyl)-amide]"

row,Structure (SMILES),EC50 [nM]
1,"CC(C)N1CC=C(c2ccc3[nH]c(C(=O)Nc4cc(F)cc(F)c4)cc3c2)CC1 [Example 87, 5-(1-Isopropyl-1,2,3,6-tetrahydro-pyridin-4-yl)-1H-indole-2-carboxylic acid (3,5-difluoro-phenyl)-amide]",1300
